In patent US11643391B2, “Prodrugs and conjugates of dimethyltryptamine” (priority 2021, dated 2023):

How the values were obtained:
[1] = Stability in SGF without pepsin; format: physicochemical
[2] = Stability in Mouse Plasma; format: in vitro ADME
[3] = Stability in SGF with pepsin; format: physicochemical
physchem = conditions: buffer, pH 6.5
[4] = Table 8, if calculated T½ < 0, T½ reported as 9999 min

CC(OC(=O)n1cc(CCN(C)C)c2ccccc21)OC(=O)C(C)(C)C (racemic) [VLS-03-15]
Peak Area of MRM: 205.0/159.8 (analyte VLS-03-15 Parent) ([1]; 0 min): 7.05E+05 | Peak Area of MRM: 205.0/159.8 (analyte VLS-03-15 Parent) ([1]; 30 min): 6.94E+05 | Peak Area of MRM: 205.0/159.8 (analyte VLS-03-15 Parent) ([1]; 60 min): 6.55E+05 | Peak Area of MRM: 205.0/159.8 (analyte VLS-03-15 Parent) ([1]; 120 min): 7.09E+05 | Peak Area of MRM: 205.0/159.8 (analyte VLS-03-15 Parent) ([1]; 240 min): 6.96E+05 | Remaining Percentage ([1]; Table 8, 0 min): 100.00% | Remaining Percentage ([1]; Table 8, 30 min): 101.12% | Remaining Percentage ([1]; Table 8, 60 min): 103.35% | Remaining Percentage ([1]; Table 8, 120 min): 105.28% | Remaining Percentage ([1]; Table 8, 240 min): 97.98% | half-life [1, 4]: 131 h | Peak Area of MRM: 205.0/159.8 (analyte VLS-03-15 Parent) ([1]; VLS-03-15 standard): 6.10E+05 | Peak Area of MRM: 205.0/159.8 (analyte VLS-03-15 Parent) (Stability in PBS pH 6.5; 0 min): 6.56E+05 | Peak Area of MRM: 205.0/159.8 (analyte VLS-03-15 Parent) (Stability in PBS pH 6.5; 30 min): 6.55E+05 | Peak Area of MRM: 205.0/159.8 (analyte VLS-03-15 Parent) (Stability in PBS pH 6.5; 60 min): 6.28E+05 | Peak Area of MRM: 205.0/159.8 (analyte VLS-03-15 Parent) (Stability in PBS pH 6.5; 120 min): 5.86E+05 | Peak Area of MRM: 205.0/159.8 (analyte VLS-03-15 Parent) (Stability in PBS pH 6.5; 240 min): 5.51E+05 | Remaining Percentage (Stability in PBS pH 6.5; Table 8, 0 min): 100.00% | Remaining Percentage (Stability in PBS pH 6.5; Table 8, 30 min): 96.93% | Remaining Percentage (Stability in PBS pH 6.5; Table 8, 60 min): 89.82% | Remaining Percentage (Stability in PBS pH 6.5; Table 8, 120 min): 89.44% | Remaining Percentage (Stability in PBS pH 6.5; Table 8, 240 min): 82.54% | Peak Area of MRM: 205.0/159.8 (analyte VLS-03-15 Parent) (Stability in PBS pH 6.5; VLS-03-15 standard): 6.74E+05 | Remaining Percentage ([2]; Table 9, 0 min): 100.00% | Remaining Percentage ([2]; Table 9, 15 min): 0.00% | Remaining Percentage ([2]; Table 9, 30 min): 0.00% | Remaining Percentage ([2]; Table 9, 60 min): 0.00% | Remaining Percentage ([2]; Table 9, 120 min): 0.00% | Peak Area of MRM: 205.0/159.8 (analyte VLS-03-15 Parent) ([3]; 0 min): 6.75E+05 | Peak Area of MRM: 205.0/159.8 (analyte VLS-03-15 Parent) ([3]; 30 min): 7.21E+05 | Peak Area of MRM: 205.0/159.8 (analyte VLS-03-15 Parent) ([3]; 60 min): 7.26E+05 | Peak Area of MRM: 205.0/159.8 (analyte VLS-03-15 Parent) ([3]; 120 min): 7.14E+05 | Peak Area of MRM: 205.0/159.8 (analyte VLS-03-15 Parent) ([3]; 240 min): 7.15E+05 | Remaining Percentage ([3]; Table 8, 0 min): 100.00% | Remaining Percentage ([3]; Table 8, 30 min): 97.29% | Remaining Percentage ([3]; Table 8, 60 min): 107.53% | Remaining Percentage ([3]; Table 8, 120 min): 103.18% | Remaining Percentage ([3]; Table 8, 240 min): 102.22% | T½ [3, 4]: 166.65 h | Peak Area of MRM: 205.0/159.8 (analyte VLS-03-15 Parent) ([3]; VLS-03-15 standard): 6.26E+05 | half-life (physchem): 15.4 h
